Data set [1] addresses CYP2C9 (Homo sapiens, UniProt P11712). Briefly: Inhibition of CYP2C9 at 10 uM. Format: ADME.
Data set [2] deals with CYP3A4 (Homo sapiens, UniProt P08684). As to the kind of experiment: Inhibition of CYP3A4 at 10 uM. Format: ADME.
Data set [3] concerns Rattus norvegicus. As to the kind of experiment: Inhibition of self alcohol consumption in rat at 0.025 mg/kg using operant techniques. Format: functional.
Data set [4] can be described thus: Metabolic stability assessed as half life in human liver S9 fraction at 40 uM. Format: ADME, subcellular.
Data set [5] has as its target CYP2C19 (Homo sapiens, UniProt P33261). Briefly: Inhibition of CYP2C19 at 10 uM. Format: ADME.
For data set [6], the target named is T1, Delta-type opioid receptor (Homo sapiens, UniProt P41143). As to the kind of experiment: biochemical.
T1 sequence (P41143 whole entry): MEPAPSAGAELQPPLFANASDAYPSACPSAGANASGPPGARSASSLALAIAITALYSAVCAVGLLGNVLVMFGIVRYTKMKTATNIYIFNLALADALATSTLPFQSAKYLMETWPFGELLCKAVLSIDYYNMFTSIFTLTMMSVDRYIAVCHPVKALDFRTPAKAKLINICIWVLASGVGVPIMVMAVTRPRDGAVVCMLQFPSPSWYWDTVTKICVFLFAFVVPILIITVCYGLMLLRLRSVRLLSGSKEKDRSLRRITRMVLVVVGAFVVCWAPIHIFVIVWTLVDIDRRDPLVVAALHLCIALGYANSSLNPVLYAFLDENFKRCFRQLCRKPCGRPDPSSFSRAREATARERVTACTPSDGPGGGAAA
Description: Displacement of [3H]DPDPE from human delta opioid receptor expressed in CHO cells
The species named for data set [7] is Homo sapiens. Briefly: Selectivity ratio of Ki for human mu opioid receptor over Ki for human delta opioid receptor.
For data set [8], the target named is T2, Kappa-type opioid receptor (Homo sapiens, UniProt P41145). As to the kind of experiment: Displacement of [3H]U69593 from human kappa opioid receptor expressed in CHO cells. Format: cell-based.
T2 sequence (P41145 whole entry): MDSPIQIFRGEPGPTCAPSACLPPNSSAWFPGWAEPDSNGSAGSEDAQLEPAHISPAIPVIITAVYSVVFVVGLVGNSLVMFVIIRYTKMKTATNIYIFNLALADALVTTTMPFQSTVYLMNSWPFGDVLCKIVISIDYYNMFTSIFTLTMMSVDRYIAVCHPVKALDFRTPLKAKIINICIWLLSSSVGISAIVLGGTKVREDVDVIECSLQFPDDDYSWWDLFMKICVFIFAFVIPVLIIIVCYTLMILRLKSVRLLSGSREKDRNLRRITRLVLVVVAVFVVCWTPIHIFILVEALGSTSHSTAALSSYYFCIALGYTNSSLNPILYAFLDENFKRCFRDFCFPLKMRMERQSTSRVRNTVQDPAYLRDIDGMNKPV
Data set [9] has as its target T3, Mu-type opioid receptor (Homo sapiens, UniProt P35372). As to the kind of experiment: Displacement of [3H]DAMGO from human mu opioid receptor expressed in CHO cells. Format: cell-based.
The species named for data set [10] is Homo sapiens. As to the kind of experiment: Selectivity ratio of Ki for human mu opioid receptor over Ki for human kappa opioid receptor.
The target in data set [11] is CYP2D6 (Homo sapiens, UniProt P10635). As to the kind of experiment: in vitro.
Chain of CYP2D6 (P10635 whole entry): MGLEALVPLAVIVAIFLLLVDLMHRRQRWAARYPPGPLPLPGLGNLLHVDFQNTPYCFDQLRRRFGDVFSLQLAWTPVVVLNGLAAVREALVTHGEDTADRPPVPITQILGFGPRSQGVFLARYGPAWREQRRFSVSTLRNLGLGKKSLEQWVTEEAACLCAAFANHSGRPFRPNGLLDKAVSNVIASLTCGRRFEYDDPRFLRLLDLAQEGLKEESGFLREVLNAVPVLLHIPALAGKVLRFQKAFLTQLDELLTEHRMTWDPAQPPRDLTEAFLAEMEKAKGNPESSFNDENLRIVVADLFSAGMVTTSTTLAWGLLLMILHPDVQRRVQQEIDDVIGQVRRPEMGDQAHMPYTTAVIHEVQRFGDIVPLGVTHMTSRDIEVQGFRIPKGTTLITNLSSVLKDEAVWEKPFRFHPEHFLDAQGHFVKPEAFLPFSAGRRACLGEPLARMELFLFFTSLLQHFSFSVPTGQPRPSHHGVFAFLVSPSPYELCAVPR
Description: Inhibition of CYP2D6 at 10 uM
For data set [12], the system named is Rattus norvegicus. As to the kind of experiment: Inhibition of self alcohol consumption in rat at 1.5 mg/kg using operant techniques. Format: functional.
Data set [13] concerns the target T2, Kappa-type opioid receptor. As to the kind of experiment: Agonist activity at human kappa opioid receptorR by [35S]GTPgammaS binding assay. Format: functional.
Data set [14] has as its target T3, Mu-type opioid receptor.
Description: Activity at human mu opioid receptor by [35S]GTPgammaS binding assay
For data set [15], the target named is T1, Delta-type opioid receptor. As to the kind of experiment: Agonist activity at human delta opioid receptorR by [35S]GTPgammaS binding assay. Format: functional.
In data set [16] the target is T4, CYP2B6 (Homo sapiens, UniProt P20813).
T4 sequence (P20813 whole entry): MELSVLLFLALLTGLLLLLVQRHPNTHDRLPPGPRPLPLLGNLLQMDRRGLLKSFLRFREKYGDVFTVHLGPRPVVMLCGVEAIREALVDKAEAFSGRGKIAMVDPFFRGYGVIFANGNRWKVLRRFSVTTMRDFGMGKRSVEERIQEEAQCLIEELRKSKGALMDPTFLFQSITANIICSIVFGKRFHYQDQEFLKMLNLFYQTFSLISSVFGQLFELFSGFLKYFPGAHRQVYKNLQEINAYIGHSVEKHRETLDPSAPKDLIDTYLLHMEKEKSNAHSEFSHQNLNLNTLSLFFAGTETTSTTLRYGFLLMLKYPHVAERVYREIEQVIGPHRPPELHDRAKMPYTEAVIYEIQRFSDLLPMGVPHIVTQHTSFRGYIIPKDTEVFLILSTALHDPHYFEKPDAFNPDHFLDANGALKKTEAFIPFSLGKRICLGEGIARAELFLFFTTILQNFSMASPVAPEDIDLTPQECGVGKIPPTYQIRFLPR
Briefly: Inhibition of CYP2B6 at 10 uM. Format: ADME.

The test system of data set [17] is Rattus norvegicus. As to the kind of experiment: Inhibition of self alcohol consumption in rat at 2 mg/kg using operant techniques. Format: functional.

Calls of active or inactive are those of the source. The rule behind the calls is not given here.

Chain of CYP2C19 (P33261 whole entry): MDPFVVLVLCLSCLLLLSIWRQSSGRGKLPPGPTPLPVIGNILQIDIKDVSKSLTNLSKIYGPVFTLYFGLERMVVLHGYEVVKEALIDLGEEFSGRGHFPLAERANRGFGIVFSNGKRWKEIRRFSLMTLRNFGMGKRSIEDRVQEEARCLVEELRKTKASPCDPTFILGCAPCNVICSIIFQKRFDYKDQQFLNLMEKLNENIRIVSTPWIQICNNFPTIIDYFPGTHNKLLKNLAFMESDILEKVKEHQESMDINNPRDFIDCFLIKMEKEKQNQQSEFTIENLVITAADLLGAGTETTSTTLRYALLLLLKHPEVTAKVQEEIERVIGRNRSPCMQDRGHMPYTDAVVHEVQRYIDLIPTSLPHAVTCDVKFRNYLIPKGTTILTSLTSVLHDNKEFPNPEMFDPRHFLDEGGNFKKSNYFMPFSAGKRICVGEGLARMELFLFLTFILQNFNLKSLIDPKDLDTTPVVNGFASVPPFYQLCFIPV
T3 sequence (P35372 whole entry): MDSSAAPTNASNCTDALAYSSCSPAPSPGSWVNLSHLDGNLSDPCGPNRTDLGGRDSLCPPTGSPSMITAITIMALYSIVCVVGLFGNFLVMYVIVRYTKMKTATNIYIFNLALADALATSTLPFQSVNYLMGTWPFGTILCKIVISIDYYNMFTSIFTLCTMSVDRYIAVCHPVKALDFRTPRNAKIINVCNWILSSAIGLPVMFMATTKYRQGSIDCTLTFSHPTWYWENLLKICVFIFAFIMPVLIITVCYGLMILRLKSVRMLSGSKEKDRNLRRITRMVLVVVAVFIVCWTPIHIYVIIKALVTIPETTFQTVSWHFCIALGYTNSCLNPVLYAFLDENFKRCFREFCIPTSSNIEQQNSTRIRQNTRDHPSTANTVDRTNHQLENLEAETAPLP
Chain of CYP3A4 (P08684 whole entry): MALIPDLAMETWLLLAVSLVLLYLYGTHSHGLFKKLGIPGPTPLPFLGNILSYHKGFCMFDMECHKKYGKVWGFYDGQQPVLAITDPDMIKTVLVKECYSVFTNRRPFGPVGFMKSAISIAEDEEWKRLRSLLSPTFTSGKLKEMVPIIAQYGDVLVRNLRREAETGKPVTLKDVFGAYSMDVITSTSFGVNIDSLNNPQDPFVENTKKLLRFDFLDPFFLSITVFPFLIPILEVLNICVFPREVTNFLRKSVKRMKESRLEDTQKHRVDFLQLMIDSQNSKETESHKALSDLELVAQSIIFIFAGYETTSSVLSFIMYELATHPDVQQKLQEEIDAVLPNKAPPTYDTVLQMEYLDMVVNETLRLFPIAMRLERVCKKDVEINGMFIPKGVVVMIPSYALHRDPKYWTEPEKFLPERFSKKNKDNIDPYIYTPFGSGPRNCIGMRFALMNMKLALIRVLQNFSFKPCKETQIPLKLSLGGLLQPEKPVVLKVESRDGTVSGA
Chain of CYP2C9 (P11712 whole entry): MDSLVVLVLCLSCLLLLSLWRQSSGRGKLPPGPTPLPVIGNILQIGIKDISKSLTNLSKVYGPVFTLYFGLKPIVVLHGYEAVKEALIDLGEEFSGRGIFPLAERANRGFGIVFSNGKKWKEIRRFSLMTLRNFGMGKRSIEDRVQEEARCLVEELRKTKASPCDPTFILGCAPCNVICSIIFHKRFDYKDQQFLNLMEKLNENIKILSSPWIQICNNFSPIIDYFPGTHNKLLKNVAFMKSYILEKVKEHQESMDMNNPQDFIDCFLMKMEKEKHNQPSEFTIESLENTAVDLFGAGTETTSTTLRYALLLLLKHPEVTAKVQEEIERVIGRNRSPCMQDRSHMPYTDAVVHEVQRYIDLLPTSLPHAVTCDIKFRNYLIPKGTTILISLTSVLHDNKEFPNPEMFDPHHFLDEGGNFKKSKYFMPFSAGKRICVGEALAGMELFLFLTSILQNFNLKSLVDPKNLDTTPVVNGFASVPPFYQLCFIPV

For `O=C(N[C@@H]1CC[C@@]2(O)[C@H]3Cc4ccc(O)c5c4[C@@]2(CCN3CC2CC2)[C@H]1O5)c1ccc(Cl)c(Cl)c1`, the inhibition at 10 µM in data set [1] worked out at 32.3%; in [2] it was 35.5%; in data set [5] it was 48.3%. The compound also showed an inhibition in vivo at 0.025 mg/kg in data set [3] of 77%. Moreover, in data set [4], the half-life at 40 µM is 5.77 h.

As for `CN(C)c1cccc(C(=O)NC2CC[C@@]3(O)[C@H]4Cc5ccc(O)c6c5[C@@]3(CCN4CC3CC3)[C@H]2O6)c1` (stereo partly specified), the inhibition at 10 µM in data set [1] worked out at 23.1%; in [2], 39.9%; in [11], 23.5%; in data set [5] it was 70%. The Ki in data set [6] is 8.5 nM; in data set [8], 1.7 nM; in data set [9], 1.2 nM. Moreover, the Ratio Ki in [7] came to 7.08; in [10] it was 1.42. The compound further registered an inhibition in vivo at 1.5 mg/kg in data set [12] of 17%. Further, the result in [13] and in [15] was Active. Moreover, the Ke in data set [14] turned out to be 0.14 nM.

Turning to `COc1cccc(C(=O)N[C@@H]2CC[C@@]3(O)[C@H]4Cc5ccc(O)c6c5[C@@]3(CCN4CC3CC3)[C@H]2O6)c1`, the Ki in data set [6] amounted to 3.8 nM; in data set [8], 0.24 nM; in data set [9] it was 0.12 nM. Besides, the Ratio Ki was found to be 32 in data set [7] and 2 in data set [10]. For the same compound, the inhibition at 10 µM in data set [2] was 44.9%; in data set [16], 49.3%; in data set [11], 31.2%; in data set [5], 47.1%. In addition, the inhibition in vivo at 2 mg/kg in [17] worked out at 75%. Moreover, the outcome in data set [13] and in [15] was Active. This compound displayed a Ke in data set [14] of 0.17 nM.

The values are drawn from ChEMBL document CHEMBL1142345, “Synthesis and biological evaluation of alpha- and beta-6-amido derivatives of 17-cyclopropylmethyl-3, 14beta-dihydroxy-4, 5alpha-epoxymorphinan: potential alcohol-cessation agents” (J Med Chem, 2008).
